Source: PubChem BioAssay AID248 (DTP/NCI, 2004)
Several values for one entry are separate records, joined by “and”; a condition that tells them apart may be missing. Equal values may be shown once. Inconclusive results and toxic doses are left out. Rule as the data show it: active = T/C of 150% or more; inactive = T/C below 125%.

Tested on: L1210 leukemia ip in BDF1 mice, survival T/C
Assay: NCI In Vivo Anticancer Drug Screen. Data for tumor model L1210 Leukemia (intraperitoneal) in B6D2F1 (BDF1) mice
Details: endpoint: mean survival time, higher = longer survival
Outline: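 Mice bearing the transplanted tumor received compound or vehicle. Survival of the treated group was divided by that of the vehicle-treated control group to give the ratio.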

[1] = dose: 100.0 mg/kg/injection, schedule: Q01DX001 (ip), vehicle: Klucel (hydroxypropylcellulose) (HPC)
[2] = dose: 200.0 mg/kg/injection, schedule: Q01DX001 (ip), vehicle: Klucel (hydroxypropylcellulose) (HPC)
[3] = dose: 50.0 mg/kg/injection, schedule: Q01DX009 (ip), vehicle: saline with Tween-80
[4] = dose: 100.0 mg/kg/injection, schedule: Q04DX003 (ip), vehicle: saline with Tween-80
[5] = dose: 200.0 mg/kg/injection, schedule: Q04DX003 (ip), vehicle: saline with Tween-80
[6] = dose: 400.0 mg/kg/injection, schedule: Q04DX003 (ip), vehicle: saline with Tween-80
[7] = dose: 100.0 mg/kg/injection, schedule: Q04DX003 (ip), vehicle: saline
[8] = dose: 200.0 mg/kg/injection, schedule: Q04DX003 (ip), vehicle: saline
[9] = dose: 400.0 mg/kg/injection, schedule: Q04DX003 (ip), vehicle: saline
[10] = dose: 100.0 mg/kg/injection, schedule: Q01DX001 (ip), vehicle: saline

Measured: T/C

COc1ccccc1-n1c(O)c(N=Nc2ccc(Br)cc2)c(=O)n(-c2ccc(Cl)cc2)c1=S
inactive: [1] 101 % of control | [2] 107 % of control

COc1ccccc1N=Nc1c(O)n(-c2ccccc2OC)c(=S)n(-c2ccccc2)c1=O
inactive: [1] 96 % of control | [2] 94 % of control

O=C(COc1ccc(Cl)c(Cl)c1)NCc1ccc[n+](CC(=O)Nc2ccc(S(=O)(=O)F)cc2)c1
inactive: dose: 100.0 mg/kg/injection, schedule: Q01DX009 (ip), vehicle: saline 100 % of control | dose: 200.0 mg/kg/injection, schedule: Q01DX009 (ip), vehicle: saline 94 % of control

S=c1nc(COc2ccccc2Cl)[nH][nH]1
inactive: [3] 106 % of control | dose: 100.0 mg/kg/injection, schedule: Q01DX009 (ip), vehicle: saline with Tween-80 100 % of control | [4] 98 % of control | dose: 200.0 mg/kg/injection, schedule: Q01DX009 (ip), vehicle: saline with Tween-80 97 % of control | [5] 102 % of control | dose: 400.0 mg/kg/injection, schedule: Q01DX009 (ip), vehicle: saline with Tween-80 98 % of control | [6] 96 % of control

CCN1OCC(C)(C(=O)OC)C1C (configuration not stated)
inactive: [7] 102 % of control | [8] 97 % of control | [9] 107 % of control

N#C/C(=C\c1c[nH]c2ccccc12)C(N)=O
inactive: dose: 50.0 mg/kg/injection, schedule: Q04DX003 (ip), vehicle: saline 104 % of control | [4] 93 % of control | [7] 107 % of control | [5] 104 % of control | [8] 95 % of control | [6] 96 % of control | [9] 97 % of control

CCCCCCCCCCS(=O)(=O)CCS(=O)(=O)CCCCCCCCCC
inactive: dose: 100.0 mg/kg/injection, schedule: Q04DX003 (ip), vehicle: Klucel (hydroxypropylcellulose) (HPC) 97 % of control | dose: 200.0 mg/kg/injection, schedule: Q04DX003 (ip), vehicle: Klucel (hydroxypropylcellulose) (HPC) 95 % of control | dose: 400.0 mg/kg/injection, schedule: Q04DX003 (ip), vehicle: Klucel (hydroxypropylcellulose) (HPC) 97 % of control

Cc1ccc2c3csc4ccccc4c-3nc2c1
inactive: dose: 6.25 mg/kg/injection, schedule: Q01DX009 (ip), vehicle: saline 101 % of control | dose: 12.5 mg/kg/injection, schedule: Q01DX009 (ip), vehicle: saline 95 % of control | dose: 12.5 mg/kg/injection, schedule: Q04DX003 (ip), vehicle: saline 93 % of control | dose: 25.0 mg/kg/injection, schedule: Q04DX003 (ip), vehicle: saline 92 % of control

COc1cc(C(=O)N(C)C)nc(OC)n1
inactive: [7] 106 % of control | [8] 108 % of control | [9] 106 % of control

C/C(=N\NC(N)=O)C1=C(O)C(C(C)C)NC1=O (configuration not stated)
inactive: dose: 50.0 mg/kg/injection, schedule: Q01DX001 (ip), vehicle: carboxymethylcellulose (CMC) 101 % of control | dose: 100.0 mg/kg/injection, schedule: Q01DX001 (ip), vehicle: carboxymethylcellulose (CMC) 106 % of control | dose: 200.0 mg/kg/injection, schedule: Q01DX001 (ip), vehicle: carboxymethylcellulose (CMC) 103 % of control | dose: 400.0 mg/kg/injection, schedule: Q01DX001 (ip), vehicle: carboxymethylcellulose (CMC) 109 % of control

CCCCCCCCCCCCCCCCCCNC(=O)OCC
inactive: dose: 100.0 mg/kg/injection, schedule: Q04DX002 (sc), vehicle: olive oil, sesame oil, peanut oil 103 % of control | dose: 200.0 mg/kg/injection, schedule: Q04DX002 (sc), vehicle: olive oil, sesame oil, peanut oil 113 % of control | dose: 400.0 mg/kg/injection, schedule: Q04DX002 (sc), vehicle: olive oil, sesame oil, peanut oil 106 % of control

COc1ccc2nc(N)sc2c1
inactive: dose: 12.5 mg/kg/injection, schedule: Q01DX009 (ip), vehicle: saline with Tween-80 96 % of control | dose: 25.0 mg/kg/injection, schedule: Q01DX009 (ip), vehicle: saline with Tween-80 89 % of control | [3] 97 % of control and 91 % of control | dose: 50.0 mg/kg/injection, schedule: Q04DX003 (ip), vehicle: saline with Tween-80 107 % of control | [4] 112 % of control | [5] 93 % of control

ClCC1CC2CC1C1OC21 (configuration not stated)
inactive: [10] 106 % of control

CC1c2c(c3ccccc3n2C)CC[N+]1(C)C (configuration not stated)
inactive: dose: 12.5 mg/kg/injection, schedule: Q01DX009 (ip), vehicle: carboxymethylcellulose (CMC) 109 % of control and 88 % of control | dose: 25.0 mg/kg/injection, schedule: Q01DX009 (ip), vehicle: carboxymethylcellulose (CMC) 115 % of control and 86 % of control | dose: 25.0 mg/kg/injection, schedule: Q04DX002 (ip), vehicle: carboxymethylcellulose (CMC) 102 % of control and 103 % of control | dose: 25.0 mg/kg/injection, schedule: Q04DX003 (ip), vehicle: carboxymethylcellulose (CMC) 102 % of control | dose: 50.0 mg/kg/injection, schedule: Q01DX009 (ip), vehicle: carboxymethylcellulose (CMC) 94 % of control and 88 % of control | dose: 50.0 mg/kg/injection, schedule: Q04DX002 (ip), vehicle: carboxymethylcellulose (CMC) 94 % of control and 99 % of control | dose: 50.0 mg/kg/injection, schedule: Q04DX003 (ip), vehicle: carboxymethylcellulose (CMC) 105 % of control | dose: 100.0 mg/kg/injection, schedule: Q04DX003 (ip), vehicle: carboxymethylcellulose (CMC) 116 % of control

O=C1C(=C(c2ccccc2)N2CCCCC2)C(=O)c2ccccc21
inactive: [10] 104 % of control | dose: 200.0 mg/kg/injection, schedule: Q01DX001 (ip), vehicle: saline 109 % of control | dose: 400.0 mg/kg/injection, schedule: Q01DX001 (ip), vehicle: saline 106 % of control

CC(=O)NC(C)Cc1ccc2c(c1)OCO2 (configuration not stated)
inactive: dose: 100.0 mg/kg/injection, schedule: Q01DX009 (ip), vehicle: Klucel (hydroxypropylcellulose) (HPC) 102 % of control | dose: 200.0 mg/kg/injection, schedule: Q01DX009 (ip), vehicle: Klucel (hydroxypropylcellulose) (HPC) 107 % of control

O=C1Oc2ccccc2C(=O)Oc2ccccc2C(=O)Oc2ccccc2C(=O)Oc2ccccc21
inactive: dose: 75.0 mg/kg/injection, schedule: Q01DX001 (ip), vehicle: saline 87 % of control

COc1ccnc2ccc(C)c([N+](=O)[O-])c12
inactive: dose: 100.0 mg/kg/injection, schedule: Q04DX003 (ip), vehicle: other 96 % of control | dose: 200.0 mg/kg/injection, schedule: Q04DX003 (ip), vehicle: other 90 % of control

CC1(C)N=C(N)N=C(N)N1c1cccc(OCCOc2cccc([N+](=O)[O-])c2)c1
inactive: dose: 5.0 mg/kg/injection, schedule: Q01DX001 (ip), vehicle: saline 105 % of control | dose: 10.0 mg/kg/injection, schedule: Q01DX001 (ip), vehicle: saline 102 % of control | dose: 20.0 mg/kg/injection, schedule: Q01DX001 (ip), vehicle: saline 103 % of control | dose: 40.0 mg/kg/injection, schedule: Q01DX001 (ip), vehicle: saline 100 % of control | dose: 80.0 mg/kg/injection, schedule: Q01DX001 (ip), vehicle: saline 100 % of control

N#CC(C#N)=NNc1cccc(Cl)c1Cl
inactive: dose: 5.0 mg/kg/injection, schedule: Q01DX009 (ip), vehicle: saline with Tween-80 90 % of control | dose: 10.0 mg/kg/injection, schedule: Q01DX009 (ip), vehicle: saline with Tween-80 88 % of control

CCc1cc(/C=C2\C(=O)C=Cc3ccccc32)c(O)s1
inactive: dose: 100.0 mg/kg/injection, schedule: Q04DX002 (ip), vehicle: saline with Tween-80 89 % of control | dose: 400.0 mg/kg/injection, schedule: Q04DX002 (ip), vehicle: saline with Tween-80 89 % of control
